Measurements from patent US20230398130A1, “METHODS AND COMPOSITIONS FOR DIFFERENTIATING STEM CELLS” (Massachusetts Institute of Technology, priority 2020, published 2023).

What was measured:
ISC-enriched organoids [1] = assay: Primary screen, 384-well 2.5-D organoid differentiation (ENR+CD, 6 days, Target Selective Inhibitor Library, vs whole-plate median): ATP (CellTiter-Glo 3D, CTG); conditions: for Dose.FC.CTG: FC vs plate median; for Z.CTG: standard z score of FC
ISC-enriched organoids [2] = assay: Primary screen, 384-well 2.5-D organoid differentiation (ENR+CD, 6 days): basal lysozyme secretion (LYZ.NS); format: cell-based, murine; conditions: for Dose.FC.LYZ.NS: FC vs plate median; for Z.LYZ.NS: standard z score of FC
Excerpt: (§1) High-throughput screening.

ISC-enriched organoids [3] = assay: Primary screen, 384-well 2.5-D organoid differentiation (ENR+CD, 6 days): carbachol-induced lysozyme secretion (LYZ.S); format: cell-based, murine; conditions: FC vs plate median
Excerpt: as §1

[4] = primary screen, dose 0.08 uM, ENR+CD 6 days
[5] = primary screen, dose 0.40 uM, ENR+CD 6 days
[6] = primary screen, dose 2.00 uM, ENR+CD 6 days
[7] = primary screen, dose 10.00 uM, ENR+CD 6 days

Row | Compound | Dose.FC.CTG (ISC-enriched organoids [1]; Dose 0.08 uM, ENR+CD, 6 days) | Z.CTG (ISC-enriched organoids [1]; Dose 0.08 uM) | Dose.FC.CTG (ISC-enriched organoids [1]; Dose 0.40 uM, ENR+CD, 6 days) | Z.CTG (ISC-enriched organoids [1]; Dose 0.40 uM) | Dose.FC.CTG (ISC-enriched organoids [1]; Dose 2.00 uM, ENR+CD, 6 days) | Z.CTG (ISC-enriched organoids [1]; Dose 2.00 uM) | Dose.FC.CTG (ISC-enriched organoids [1]; Dose 10.00 uM, ENR+CD, 6 days) | Z.CTG (ISC-enriched organoids [1]; Dose 10.00 uM) | Dose.FC.LYZ.NS (ISC-enriched organoids [2]; Dose 0.08 uM, ENR+CD, 6 days) | Z.LYZ.NS (ISC-enriched organoids [2]; Dose 0.08 uM) | Dose.FC.LYZ.NS (ISC-enriched organoids [2]; Dose 0.40 uM, ENR+CD, 6 days) | Z.LYZ.NS (ISC-enriched organoids [2]; Dose 0.40 uM) | Dose.FC.LYZ.NS (ISC-enriched organoids [2]; Dose 2.00 uM, ENR+CD, 6 days) | Z.LYZ.NS (ISC-enriched organoids [2]; Dose 2.00 uM) | Dose.FC.LYZ.NS (ISC-enriched organoids [2]; Dose 10.00 uM, ENR+CD, 6 days) | Z.LYZ.NS (ISC-enriched organoids [2]; Dose 10.00 uM) | Dose.FC.LYZ.S (ISC-enriched organoids [3]; Dose 0.08 uM, ENR+CD, 6 days) | Dose.FC.LYZ.S (ISC-enriched organoids [3]; Dose 0.40 uM, ENR+CD, 6 days) | Dose.FC.LYZ.S (ISC-enriched organoids [3]; Dose 2.00 uM, ENR+CD, 6 days) | Dose.FC.LYZ.S (ISC-enriched organoids [3]; Dose 10.00 uM, ENR+CD, 6 days) | further results
1 | O=C(/C=C/c1cccc(S(=O)(=O)Nc2ccccc2)c1)NO [Belinostat (PXD101)] | – | – | – | – | – | – | – | – | – | – | – | – | – | – | – | – | – | – | – | – | Dose.FC.CTG (ISC-enriched organoids [1]; [4]): −0.227 log 2 fold change; Z.CTG (ISC-enriched organoids [1]; primary screen, dose 0.08 uM): −0.543; Dose.FC.CTG (ISC-enriched organoids [1]; [5]): −0.055 log 2 fold change; Z.CTG (ISC-enriched organoids [1]; primary screen, dose 0.40 uM): −0.133; Dose.FC.CTG (ISC-enriched organoids [1]; [6]): −0.782 log 2 fold change; Z.CTG (ISC-enriched organoids [1]; primary screen, dose 2.00 uM): −1.868; Dose.FC.CTG (ISC-enriched organoids [1]; [7]): −1.122 log 2 fold change; Z.CTG (ISC-enriched organoids [1]; primary screen, dose 10.00 uM): −2.679; Dose.FC.LYZ.NS (ISC-enriched organoids [2]; [4]): 0.008 log 2 fold change; Z.LYZ.NS (ISC-enriched organoids [2]; primary screen, dose 0.08 uM): 0.067; Dose.FC.LYZ.NS (ISC-enriched organoids [2]; [5]): 0.129 log 2 fold change; Z.LYZ.NS (ISC-enriched organoids [2]; primary screen, dose 0.40 uM): 1.125; Dose.FC.LYZ.NS (ISC-enriched organoids [2]; [6]): −0.173 log 2 fold change; Z.LYZ.NS (ISC-enriched organoids [2]; primary screen, dose 2.00 uM): −1.510; Dose.FC.LYZ.NS (ISC-enriched organoids [2]; [7]): −0.196 log 2 fold change; Z.LYZ.NS (ISC-enriched organoids [2]; primary screen, dose 10.00 uM): −1.709; Dose.FC.LYZ.S (ISC-enriched organoids [3]; [4]): −0.059 log 2 fold change; Dose.FC.LYZ.S (ISC-enriched organoids [3]; [5]): 0.042 log 2 fold change; Dose.FC.LYZ.S (ISC-enriched organoids [3]; [6]): −0.264 log 2 fold change; Dose.FC.LYZ.S (ISC-enriched organoids [3]; [7]): −0.327 log 2 fold change
2 | CC(C)C[C@H](NC(=O)[C@@H](NC(=O)c1cccc(-c2ccccc2)n1)[C@@H](C)O)B(O)O [CEP-18770 (Delanzomib)] | −0.953 log 2 fold change | −2.276 | −1.642 log 2 fold change | −3.923 | −0.990 log 2 fold change | −2.364 | −1.148 log 2 fold change | −2.742 | −0.108 log 2 fold change | −0.937 | −0.076 log 2 fold change | −0.664 | −0.063 log 2 fold change | −0.546 | −0.035 log 2 fold change | −0.308 | −0.179 log 2 fold change | −0.159 log 2 fold change | −0.180 log 2 fold change | −0.149 log 2 fold change | –
3 | O=C(NC(NC(=S)Nc1ccc(F)c([N+](=O)[O-])c1)C(Cl)(Cl)Cl)C(c1ccccc1)c1ccccc1 (stereo not drawn) [CGK733] | −0.362 log 2 fold change | −0.864 | −0.093 log 2 fold change | −0.221 | −0.244 log 2 fold change | −0.582 | −0.478 log 2 fold change | −1.143 | 0.099 log 2 fold change | 0.863 | −0.026 log 2 fold change | −0.222 | −0.099 log 2 fold change | −0.865 | −0.122 log 2 fold change | −1.063 | 0.008 log 2 fold change | −0.018 log 2 fold change | −0.125 log 2 fold change | −0.230 log 2 fold change | –
4 | Nc1ncnc2n[nH]c(Nc3ccc(F)cc3)c12 [CGP57380] | 0.108 log 2 fold change | 0.258 | −0.293 log 2 fold change | −0.700 | −0.460 log 2 fold change | −1.098 | 0.055 log 2 fold change | 0.132 | 0.218 log 2 fold change | 1.900 | −0.041 log 2 fold change | −0.354 | −0.055 log 2 fold change | −0.477 | −0.037 log 2 fold change | −0.321 | 0.096 log 2 fold change | 0.054 log 2 fold change | −0.095 log 2 fold change | −0.088 log 2 fold change | –
5 | O=c1[nH]c2ccc(Cl)cc2c(N[C@@H]2CN3CCC2CC3)c1-c1nc2ccccc2[nH]1 [CHIR-124] | −0.256 log 2 fold change | −0.612 | −0.853 log 2 fold change | −2.038 | −0.861 log 2 fold change | −2.057 | −1.555 log 2 fold change | −3.714 | −0.155 log 2 fold change | −1.352 | −0.240 log 2 fold change | −2.090 | −0.220 log 2 fold change | −1.916 | −0.140 log 2 fold change | −1.223 | −0.267 log 2 fold change | −0.339 log 2 fold change | −0.352 log 2 fold change | −0.332 log 2 fold change | –
6 | Cc1[nH]c2ccccc2c1CCNC(=O)c1cccs1 [CK-636] | 0.202 log 2 fold change | 0.483 | −0.004 log 2 fold change | −0.010 | −0.201 log 2 fold change | −0.479 | −0.169 log 2 fold change | −0.404 | 0.039 log 2 fold change | 0.336 | −0.049 log 2 fold change | −0.427 | −0.066 log 2 fold change | −0.573 | −0.108 log 2 fold change | −0.944 | 0.080 log 2 fold change | −0.013 log 2 fold change | 0.072 log 2 fold change | −0.103 log 2 fold change | –
